Data as given in patent publication US7863262B2, “Nitroxyl progenitors in the treatment of heart failure” (Johns Hopkins University, priority 2002, dated 2011).
“Also recorded” adds a separate entry of the source. Ends that are not written are not given here.

Legend:
[1] = test system: conscious dogs experiencing congestive heart failure (CHF); type: in vivo, mongrel dogs; conditions: for cardiac load as measured by Edv (preload) and Ea (afterload): FIG. 1
[2] = Long-term infusion (3-4 hours of perfusion); type: in vivo
Method: In particular embodiments the HNO/NO^− donating compound is administered in the form of a pharmaceutical composition. A pharmaceutical composition comprising an effective amount of the HNO/NO^− donating compound as an active ingredient could be easily prepared by standard procedures well known in the art, with pharmaceutically acceptable non-toxic solvents and/or sterile carriers, if necessary. Such preparations are administered orally or in injectable form, or directly to myocardial tissue. In other embodiments the HNO/NO^− donor is administered without a pharmaceutical carrier. In particular embodiments the HNO/NO^− donor is administered by a short-term infusion, such as for 5 to 20 minutes. In other embodiments the HNO/NO^− donor is administered by a long-term infusion, such as from 3-4 hours.

[3] = test system: reperfused myocardium; conditions: anesthetized rabbits; given 5 minutes prior to reperfusion (after ischemia); Ma et al. 1999; cited from earlier work
[4] = test system: rat renal tissue; conditions: given during ischemia and 5 minutes before reperfusion; Takahira et al. 2001; cited from earlier work
[5] = test system: normal conscious dogs under beta-antagonist therapy with propranolol; type: in vivo; conditions: propranolol 2 milligrams/kg in bolus; normal subject
[6] = test system: CGRP receptors; assay: CGRP receptor antagonism with CGRP8-37 in conscious dogs experiencing heart failure; type: in vivo, mongrel dogs; conditions: FIG. 6
Method: The diagnostic tests included Ees, DEDV, PRSW, tau, Pes, end diastolic pressure (Ped), end diastolic volume (Ved), and Ea.
To test the relation between the inotropic action of HNO/NO^− and calcitonin gene-related peptide (CGRP) signaling, CGRP receptors in mongrel dogs were antagonized using the selective antagonist CGRP8-37 (400 μg in 30 milliliters (ml) of saline bolus, then 2.6 μg/kg/min for 15 min). Plasma CGRP levels measurements were performed by sampling the blood of the dogs. Blood samples (2.5 ml) were withdrawn from arterial, venous, and coronary sinus catheters. After sampling, catheters were flushed with heparanized saline. Samples were centrifuged at 1600 times gravity (g) for 20 minutes at 4° Celsius (C). Plasma was then separated and stored at −20° C. until analysis. Plasma (0.5 ml) was used to extract CGRP by addition of 0.8 ml of ethanol. The mixture was centrifuged at 1600 g for 20 minutes. After removing the supernatant, the extracted samples were air dried at room temperature overnight and then stored at 4° C. Immediately prior to assay, dried samples were reconstituted with assay buffer following manufacturer's instructions (Peninsula Labs) and assayed for CGRP by radioimmunoassay (RIA). CGRP antiserum, code RAS 6012, was used. The dynamic assay range was 1-128 picograms (pg) per 300 microliters (μL) of sample. […]

[Na+].[Na+].[O-][N+]([O-])=NO [Angeli's salt, sodium trioxodinitrate]
cardiac load as measured by Edv (preload) and Ea (afterload) [1]: lowered left ventricular preload; also recorded: reduced the cardiac load | persistence of beneficial effects during long-term infusion [2]: retains its beneficial effects during 3-4 hours of perfusion | myocardial ischemia/reperfusion injury [3]: increased myocardial ischemia/reperfusion injury | neutrophil infiltration into renal tissue [4]: contributed to neutrophil infiltration into the tissue

CC(C)N[N+]([O-])=N[O-].[Na+] [IPA/NO, isopropylamine (IPA)/NO(Na(CH3)2CHNHN(O)NO)]
cardiac load as measured by Edv (preload) and Ea (afterload) [1]: reduced the cardiac load | cardiac contractility compared with Angeli's salt (Ees) ([1]; IPA/NO doses one-half to one-quarter those of Angeli's salt, nearly equivalent blood pressure decrease): superior to those caused by the HNO/NO^− donating compound Angeli's salt; also recorded: exerted a stronger positive inotropic effect; also recorded: greater increase in cardiac contractility than Angeli's salt

CC(C)NCC(O)COc1cccc2ccccc12 (stereo not drawn) [propranolol]
myocardial performance [5]: reduction in myocardial performance

calcitonin gene-related peptide8-37 (VTHRLAGLLSRSGGVVKNNFVPTNVGSKAF; ends and bridges not checked; UniProt P06881 90-119, looked up, fragment) [CGRP8-37]
inotropic effect as measured by Ees ([6]; CGRP8-37 alone): modest negative inotropic effect | effect on the positive inotropic effect of Angeli's salt (Ees) ([6]; CGRP8-37 combined with Angeli's salt versus Angeli's salt alone): effectively prevented the HNO/NO^−-mediated, positive inotropic effect of Angeli's salt
